{"source": "patent US20250120989A1", "about": "“BRIDGED TRICYCLIC CARBAMOYLPYRIDONE COMPOUNDS AND USES THEREOF” (priority 2023, published 2025)", "key": {"HIV-1 (IIIB)": {"tested_on": "HIV-1 (IIIB)", "assay": "microbe, parasite or virus in culture", "format": "cell-based", "settings": "Human immunodeficiency virus 1, MT4, 120 h; HIV-1 (IIIB) replication in MT-4 cells, 5 days, Cell Titer Glo; read-out: MT4 EC50"}, "in vitro": {"assay": "in vitro", "settings": "human, uninfected MT-4 cells"}, "physchem": {"assay": "physchem", "settings": "FaSSIF, 23 °C, thermodynamic from solid"}}, "data": [{"smiles": "COC1=NO[C@@]2(CC[C@H](C)N3C[C@H]2n2cc(C(=O)NCc4ccc(F)cc4F)c(=O)c(OCOC(=O)OC[C@H](C)OP(=O)(O)O)c2C3=O)C1", "note": "[Compound 23, (((3′S,5S,7′R)-10′-((2,4-difluorobenzyl)carbamoyl)-3-methoxy-3′-methyl-1′,11′-dioxo-1′,4′,5′,11′-tetrahydro-3′H,4H,7′H-spiro[isoxazole-5,6′-[2,7]methanopyrido[1,2-a][1,4]diazonin]-12′-yl)oxy)methyl ((S)-2-(phosphonooxy)propyl) carbonate]", "values": [{"measurement": "EC50", "setting": "HIV-1 (IIIB)", "value": 0.00233, "unit": "µM"}, {"measurement": "CC50 at 5 days", "setting": "in vitro", "value": 14.8, "unit": "µM"}, {"measurement": "solubility thermodynamic at 24 h", "setting": "physchem", "value": 4400, "unit": "µg/mL"}]}, {"smiles": "CC1=NO[C@@]2(CC[C@H](C)N3C[C@H]2n2cc(C(=O)NCc4ccc(F)cc4F)c(=O)c(OCOC(=O)OCC(C)(C)N(C)C(=O)OCOP(=O)(O)O)c2C3=O)C1", "note": "[Compound 36, (phosphonooxy)methyl (1-((((((3′S,5S,7′R)-10′-((2,4-difluorobenzyl)carbamoyl)-3,3′-dimethyl-1′,11′-dioxo-1′,4′,5′,11′-tetrahydro-3′H,4H,7′H-spiro[isoxazole-5,6′-[2,7]methanopyrido[1,2-a][1,4]diazonin]-12′-yl)oxy)methoxy)carbonyl)oxy)-2-methylpropan-2-yl)(methyl)carbamate]", "values": [{"measurement": "EC50", "setting": "HIV-1 (IIIB)", "value": 0.00122, "unit": "µM"}, {"measurement": "CC50 at 5 days", "setting": "in vitro", "value": 9.33, "unit": "µM"}, {"measurement": "solubility thermodynamic at 24 h", "setting": "physchem", "value": 5060, "unit": "µg/mL"}]}, {"smiles": "COC1=NO[C@@]2(CC[C@H](C)N3C[C@H]2n2cc(C(=O)NCc4ccc(F)cc4F)c(=O)c(OCOC(=O)O[C@@H](C)[C@@H](C)OP(=O)(O)O)c2C3=O)C1", "note": "[Compound 59, (((3′S,5S,7′R)-10′-((2,4-difluorobenzyl)carbamoyl)-3-methoxy-3′-methyl-1′,11′-dioxo-1′,4′,5′,11′-tetrahydro-3′H,4H,7′H-spiro[isoxazole-5,6′-[2,7]methanopyrido[1,2-a][1,4]diazonin]-12′-yl)oxy)methyl ((2S,3R)-3-(phosphonooxy)butan-2-yl) carbonate]", "values": [{"measurement": "EC50", "setting": "HIV-1 (IIIB)", "value": 0.00204, "unit": "µM"}, {"measurement": "CC50 at 5 days", "setting": "in vitro", "value": 18.8, "unit": "µM"}, {"measurement": "solubility thermodynamic at 24 h", "setting": "physchem", "value": 5240, "unit": "µg/mL"}]}, {"smiles": "COC1=NO[C@@]2(CC[C@H](C)N3C[C@H]2n2cc(C(=O)NCc4ccc(F)cc4F)c(=O)c(OCOC(=O)O[C@H](C)[C@@H](C)OP(=O)(O)O)c2C3=O)C1", "note": "[Compound 61, (((3′S,5S,7′R)-10′-((2,4-difluorobenzyl)carbamoyl)-3-methoxy-3′-methyl-1′,11′-dioxo-1′,4′,5′,11′-tetrahydro-3′H,4H,7′H-spiro[isoxazole-5,6′-[2,7]methanopyrido[1,2-a][1,4]diazonin]-12′-yl)oxy)methyl ((2R,3R)-3-(phosphonooxy)butan-2-yl) carbonate]", "values": [{"measurement": "EC50", "setting": "HIV-1 (IIIB)", "value": 0.00235, "unit": "µM"}, {"measurement": "CC50 at 5 days", "setting": "in vitro", "value": 20.9, "unit": "µM"}, {"measurement": "solubility thermodynamic at 24 h", "setting": "physchem", "value": 4800, "unit": "µg/mL"}]}, {"smiles": "COC1=NO[C@@]2(CC[C@H](C)N3C[C@H]2n2cc(C(=O)NCc4ccc(F)cc4F)c(=O)c(OCOC(=O)OC[C@H](C)COP(=O)(O)O)c2C3=O)C1", "note": "[Compound 68, (((3′S,5S,7′R)-10′-((2,4-difluorobenzyl)carbamoyl)-3-methoxy-3′-methyl-1′,11′-dioxo-1′,4′,5′,11′-tetrahydro-3′H,4H,7′H-spiro[isoxazole-5,6′-[2,7]methanopyrido[1,2-a][1,4]diazonin]-12′-yl)oxy)methyl ((S)-2-methyl-3-(phosphonooxy)propyl) carbonate]", "values": [{"measurement": "EC50", "setting": "HIV-1 (IIIB)", "value": 0.00211, "unit": "µM"}, {"measurement": "CC50 at 5 days", "setting": "in vitro", "value": 16.1, "unit": "µM"}, {"measurement": "solubility thermodynamic at 24 h", "setting": "physchem", "value": 4620, "unit": "µg/mL"}]}, {"smiles": "CC1=NO[C@@]2(CC[C@H](C)N3C[C@H]2n2cc(C(=O)NCc4ccc(F)cc4F)c(=O)c(OCOC(=O)N(C)CCN(CC(=O)O)C(=O)OCOP(=O)(O)O)c2C3=O)C1", "note": "[Compound 21, N-(2-((((((3′S,5S,7′R)-10′-((2,4-difluorobenzyl)carbamoyl)-3,3′-dimethyl-1′,11′-dioxo-1′,4′,5′,11′-tetrahydro-3′H,4H,7′H-spiro[isoxazole-5,6′-[2,7]methanopyrido[1,2-a][1,4]diazonin]-12′-yl)oxy)methoxy)carbonyl)(methyl)amino)ethyl)-N-(((phosphonooxy)methoxy)carbonyl)glycine]", "values": [{"measurement": "EC50", "setting": "HIV-1 (IIIB)", "value": 0.0015, "unit": "µM"}, {"measurement": "CC50 at 5 days", "setting": "in vitro", "value": 15.2, "unit": "µM"}, {"measurement": "solubility thermodynamic at 24 h", "setting": "physchem", "value": 5040, "unit": "µg/mL"}]}, {"smiles": "CC1=NO[C@@]2(CC[C@H](C)N3C[C@H]2n2cc(C(=O)NCc4ccc(F)cc4F)c(=O)c(OCOC(=O)OCC4(COP(=O)(O)O)CC4)c2C3=O)C1", "note": "[Compound 33, (((3′S,5S,7′R)-10′-((2,4-difluorobenzyl)carbamoyl)-3,3′-dimethyl-1′,11′-dioxo-1′,4′,5′,11′-tetrahydro-3′H,4H,7′H-spiro[isoxazole-5,6′-[2,7]methanopyrido[1,2-a][1,4]diazonin]-12′-yl)oxy)methyl ((1-((phosphonooxy)methyl)cyclopropyl)methyl) carbonate]", "values": [{"measurement": "EC50", "setting": "HIV-1 (IIIB)", "value": 0.00217, "unit": "µM"}, {"measurement": "CC50 at 5 days", "setting": "in vitro", "value": 12.3, "unit": "µM"}, {"measurement": "solubility thermodynamic at 24 h", "setting": "physchem", "value": 5680, "unit": "µg/mL"}]}, {"smiles": "COC1=NO[C@@]2(CC[C@H](C)N3C[C@H]2n2cc(C(=O)NCc4ccc(F)cc4F)c(=O)c(OCOC(=O)OC(C)(C)COP(=O)(O)O)c2C3=O)C1", "note": "[Compound 63, (((3′S,5S,7′R)-10′-((2,4-difluorobenzyl)carbamoyl)-3-methoxy-3′-methyl-1′,11′-dioxo-1′,4′,5′,11′-tetrahydro-3′H,4H,7′H-spiro[isoxazole-5,6′-[2,7]methanopyrido[1,2-a][1,4]diazonin]-12′-yl)oxy)methyl (2-methyl-1-(phosphonooxy)propan-2-yl) carbonate]", "values": [{"measurement": "EC50", "setting": "HIV-1 (IIIB)", "value": 0.00512, "unit": "µM"}, {"measurement": "CC50 at 5 days", "setting": "in vitro", "value": 35.4, "unit": "µM"}, {"measurement": "solubility thermodynamic at 24 h", "setting": "physchem", "value": 4620, "unit": "µg/mL"}]}, {"smiles": "CC1=NO[C@@]2(CC[C@H](C)N3C[C@H]2n2cc(C(=O)NCc4ccc(F)cc4F)c(=O)c(OCOC(=O)O[C@@H](C)[C@H](C)OP(=O)(O)O)c2C3=O)C1", "note": "[Compound 28, (((3′S,5S,7′R)-10′-((2,4-difluorobenzyl)carbamoyl)-3,3′-dimethyl-1′,11′-dioxo-1′,4′,5′,11′-tetrahydro-3′H,4H,7′H-spiro[isoxazole-5,6′-[2,7]methanopyrido[1,2-a][1,4]diazonin]-12′-yl)oxy)methyl ((2S,3S)-3-(phosphonooxy)butan-2-yl) carbonate]", "values": [{"measurement": "EC50", "setting": "HIV-1 (IIIB)", "value": 0.00485, "unit": "µM"}, {"measurement": "CC50 at 5 days", "setting": "in vitro", "value": 28.9, "unit": "µM"}, {"measurement": "solubility thermodynamic at 24 h", "setting": "physchem", "value": 4400, "unit": "µg/mL"}]}, {"smiles": "CC[C@H](COC(=O)OCOc1c2n(cc(C(=O)NCc3ccc(F)cc3F)c1=O)[C@@H]1CN(C2=O)[C@@H](C)CC[C@]12CC(OC)=NO2)OP(=O)(O)O", "note": "[Compound 65, (((3′S,5S,7′R)-10′-((2,4-difluorobenzyl)carbamoyl)-3-methoxy-3′-methyl-1′,11′-dioxo-1′,4′,5′,11′-tetrahydro-3′H,4H,7′H-spiro[isoxazole-5,6′-[2,7]methanopyrido[1,2-a][1,4]diazonin]-12′-yl)oxy)methyl ((R)-2-(phosphonooxy)butyl) carbonate]", "values": [{"measurement": "EC50", "setting": "HIV-1 (IIIB)", "value": 0.00102, "unit": "µM"}, {"measurement": "CC50 at 5 days", "setting": "in vitro", "value": 14.1, "unit": "µM"}, {"measurement": "solubility thermodynamic at 24 h", "setting": "physchem", "value": 3880, "unit": "µg/mL"}]}, {"smiles": "COC1=NO[C@@]2(CC[C@H](C)N3C[C@H]2n2cc(C(=O)NCc4ccc(F)cc4F)c(=O)c(OCOC(=O)OCCN(CC(=O)O)C(=O)OCOP(=O)(O)O)c2C3=O)C1", "note": "[Compound 8, N-(2-((((((3′S,5S,7′R)-10′-((2,4-difluorobenzyl)carbamoyl)-3-methoxy-3′-methyl-1′,11′-dioxo-1′,4′,5′,11′-tetrahydro-3′H,4H,7′H-spiro[isoxazole-5,6′-[2,7]methanopyrido[1,2-a][1,4]diazonin]-12′-yl)oxy)methoxy)carbonyl)oxy)ethyl)-N-(((phosphonooxy)methoxy)carbonyl)glycine]", "values": [{"measurement": "EC50", "setting": "HIV-1 (IIIB)", "value": 0.00204, "unit": "µM"}, {"measurement": "CC50 at 5 days", "setting": "in vitro", "value": 17.8, "unit": "µM"}, {"measurement": "solubility thermodynamic at 24 h", "setting": "physchem", "value": 3020, "unit": "µg/mL"}]}]}
